Reference: PubChem BioAssay (NCI)
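All cell lines were grown in 96-well plates and treated with compound for 48 hours. At the GI50, growth is halved. The concentration for full growth arrest is given as TGI.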

What was measured:
Experiment in all cases: growth of human tumour cells (NCI), 48 h
MDA-MB-231 breast = test system: MDA-MB-231 breast
KM12 colon = test system: KM12 colon
HOP-92 NSCLC = test system: HOP-92 NSCLC
OVCAR-5 ovarian = test system: OVCAR-5 ovarian
A549 NSCLC = test system: A549 NSCLC
NCI-H460 lung = test system: NCI-H460 lung
BT-549 breast = test system: BT-549 breast
UO-31 renal = test system: UO-31 renal
A498 renal = test system: A498 renal
CAKI-1 renal = test system: CAKI-1 renal
SK-MEL-2 melanoma = test system: SK-MEL-2 melanoma
NCI-H23 lung = test system: NCI-H23 lung
NCI-H522 lung = test system: NCI-H522 lung
M14 melanoma = test system: M14 melanoma
SK-MEL-28 melanoma = test system: SK-MEL-28 melanoma
MDA-MB-435 = test system: MDA-MB-435
SF-539 CNS = test system: SF-539 CNS
OVCAR-8 ovarian = test system: OVCAR-8 ovarian
OVCAR-4 ovarian = test system: OVCAR-4 ovarian
CCRF-CEM leukemia = test system: CCRF-CEM leukemia
UACC-257 melanoma = test system: UACC-257 melanoma
UACC-62 melanoma = test system: UACC-62 melanoma
HCT-15 colon = test system: HCT-15 colon
SK-MEL-5 melanoma = test system: SK-MEL-5 melanoma
SR leukemia = test system: SR leukemia
SW-620 colon = test system: SW-620 colon
DU-145 prostate = test system: DU-145 prostate
MDA-N = test system: MDA-N
SN12C renal = test system: SN12C renal
IGROV1 ovarian = test system: IGROV1 ovarian
786-0 renal = test system: 786-0 renal
LOX IMVI melanoma = test system: LOX IMVI melanoma
COLO 205 colon = test system: COLO 205 colon
SF-295 CNS = test system: SF-295 CNS
SK-OV-3 ovarian = test system: SK-OV-3 ovarian
TK-10 renal = test system: TK-10 renal
PC-3 prostate = test system: PC-3 prostate
MCF7 breast = test system: MCF7 breast
SF-268 CNS = test system: SF-268 CNS
EKVX NSCLC = test system: EKVX NSCLC
HS 578T breast = test system: HS 578T breast
ACHN renal = test system: ACHN renal
SNB-19 CNS = test system: SNB-19 CNS
OVCAR-3 ovarian = test system: OVCAR-3 ovarian
MALME-3M melanoma = test system: MALME-3M melanoma
NCI-H226 lung = test system: NCI-H226 lung
HCC-2998 colon = test system: HCC-2998 colon
MOLT-4 leukemia = test system: MOLT-4 leukemia
HCT-116 colon = test system: HCT-116 colon
RXF 393 renal = test system: RXF 393 renal
HL-60(TB) leukemia = test system: HL-60(TB) leukemia
SNB-75 CNS = test system: SNB-75 CNS
HOP-62 NSCLC = test system: HOP-62 NSCLC
NCI/ADR-RES ovarian = test system: NCI/ADR-RES ovarian
K-562 leukemia = test system: K-562 leukemia
U251 CNS = test system: U251 CNS
RPMI-8226 leukemia = test system: RPMI-8226 leukemia
HT29 colon = test system: HT29 colon

Cc1ccc2c(=O)cc(-c3cccc(Cl)c3)[nH]c2n1
TGI (MDA-MB-231 breast): 3.63 µM
TGI (KM12 colon): > 37.5 µM
TGI (HOP-92 NSCLC): > 100 µM
TGI (OVCAR-5 ovarian): > 100 µM
TGI (A549 NSCLC): > 100 µM
TGI (NCI-H460 lung): > 100 µM
TGI (BT-549 breast): > 100 µM
TGI (UO-31 renal): > 100 µM
TGI (A498 renal): > 100 µM
TGI (CAKI-1 renal): > 100 µM
TGI (SK-MEL-2 melanoma): > 100 µM
TGI (NCI-H23 lung): > 31.6 µM
TGI (NCI-H522 lung): 1610 nM
TGI (M14 melanoma): > 100 µM
TGI (SK-MEL-28 melanoma): > 100 µM
TGI (MDA-MB-435): 46.3 nM
TGI (SF-539 CNS): 44.3 nM
TGI (OVCAR-8 ovarian): > 100 µM
TGI (OVCAR-4 ovarian): > 100 µM
TGI (CCRF-CEM leukemia): > 100 µM
TGI (UACC-257 melanoma): > 100 µM
TGI (UACC-62 melanoma): > 100 µM
TGI (HCT-15 colon): > 35.8 µM
TGI (SK-MEL-5 melanoma): 4.7 µM
TGI (SR leukemia): > 100 µM
TGI (SW-620 colon): > 100 µM
TGI (DU-145 prostate): > 100 µM
TGI (MDA-N): > 100 µM
TGI (SN12C renal): > 100 µM
TGI (IGROV1 ovarian): > 100 µM
TGI (786-0 renal): > 100 µM
TGI (LOX IMVI melanoma): > 100 µM
TGI (COLO 205 colon): > 35.8 µM
TGI (SF-295 CNS): 1360 nM
TGI (SK-OV-3 ovarian): > 100 µM
TGI (TK-10 renal): > 100 µM
TGI (PC-3 prostate): > 100 µM
TGI (MCF7 breast): > 36 µM
TGI (SF-268 CNS): > 100 µM
TGI (EKVX NSCLC): > 100 µM
TGI (HS 578T breast): > 100 µM
TGI (ACHN renal): > 100 µM
TGI (SNB-19 CNS): > 100 µM
TGI (OVCAR-3 ovarian): 27.4 nM
TGI (MALME-3M melanoma): > 100 µM
TGI (NCI-H226 lung): 25.9 µM
TGI (HCC-2998 colon): 41.5 µM

Cc1cc(C)c2c(=O)cc(-c3cccc(Cl)c3)[nH]c2n1
TGI (MDA-MB-231 breast): 8.09 µM
TGI (KM12 colon): > 100 µM
TGI (HOP-92 NSCLC): > 100 µM
TGI (A549 NSCLC): > 100 µM
TGI (NCI-H460 lung): > 100 µM
TGI (MOLT-4 leukemia): > 38.8 µM
TGI (BT-549 breast): 85.3 µM
TGI (UO-31 renal): > 100 µM
TGI (A498 renal): > 100 µM
GI50 (CAKI-1 renal): 204 nM
TGI (CAKI-1 renal): > 100 µM
TGI (HCT-116 colon): > 23.1 µM
TGI (NCI-H23 lung): > 100 µM
TGI (NCI-H522 lung): 742 nM
TGI (M14 melanoma): > 100 µM
TGI (SK-MEL-28 melanoma): > 100 µM
TGI (RXF 393 renal): > 100 µM
TGI (HL-60(TB) leukemia): 2150 nM
TGI (SF-539 CNS): 464 nM
TGI (OVCAR-8 ovarian): > 100 µM
TGI (OVCAR-4 ovarian): > 100 µM
TGI (CCRF-CEM leukemia): > 100 µM
TGI (UACC-257 melanoma): > 94.1 µM
TGI (UACC-62 melanoma): > 100 µM
TGI (SNB-75 CNS): > 100 µM
TGI (HCT-15 colon): > 100 µM
TGI (SR leukemia): > 100 µM
TGI (SW-620 colon): > 100 µM
TGI (DU-145 prostate): > 100 µM
TGI (MDA-N): 0.0529 µM
TGI (SN12C renal): > 38.3 µM
TGI (HOP-62 NSCLC): > 100 µM
TGI (IGROV1 ovarian): > 100 µM
TGI (786-0 renal): > 55.1 µM
TGI (LOX IMVI melanoma): > 34.2 µM
TGI (COLO 205 colon): > 67.1 µM
TGI (SF-295 CNS): 330 nM
TGI (SK-OV-3 ovarian): > 100 µM
TGI (TK-10 renal): > 100 µM
TGI (PC-3 prostate): 0.0967 µM
TGI (MCF7 breast): > 100 µM
TGI (SF-268 CNS): > 100 µM
TGI (EKVX NSCLC): > 100 µM
TGI (HS 578T breast): > 100 µM
TGI (ACHN renal): > 100 µM
TGI (SNB-19 CNS): > 100 µM
TGI (MALME-3M melanoma): > 100 µM
TGI (NCI-H226 lung): > 100 µM
TGI (HCC-2998 colon): > 100 µM

CN(CC(=O)O)c1ncc2c(n1)-c1ccccc1OC2c1ccccc1 (centres undefined)
TGI (NCI/ADR-RES ovarian): > 100 µM
TGI (MDA-MB-231 breast): > 100 µM
TGI (KM12 colon): > 100 µM
TGI (K-562 leukemia): > 100 µM
TGI (HOP-92 NSCLC): > 100 µM
TGI (OVCAR-5 ovarian): > 100 µM
TGI (A549 NSCLC): > 100 µM
TGI (NCI-H460 lung): > 100 µM
TGI (U251 CNS): > 100 µM
TGI (MOLT-4 leukemia): > 100 µM
TGI (RPMI-8226 leukemia): > 100 µM
TGI (UO-31 renal): > 100 µM
TGI (CAKI-1 renal): > 100 µM
TGI (SK-MEL-2 melanoma): > 100 µM
TGI (NCI-H23 lung): > 100 µM
TGI (NCI-H522 lung): > 100000 nM
TGI (M14 melanoma): > 100 µM
TGI (SK-MEL-28 melanoma): > 100 µM
TGI (RXF 393 renal): > 100 µM
TGI (HL-60(TB) leukemia): > 100000 nM
TGI (MDA-MB-435): > 100000 nM
TGI (SF-539 CNS): > 100000 nM
TGI (OVCAR-8 ovarian): > 100 µM
TGI (OVCAR-4 ovarian): > 100 µM
TGI (CCRF-CEM leukemia): > 100 µM
TGI (UACC-257 melanoma): > 100 µM
TGI (UACC-62 melanoma): > 100 µM
TGI (SNB-75 CNS): > 100 µM
TGI (HCT-15 colon): > 100 µM
TGI (SK-MEL-5 melanoma): > 100 µM
TGI (SR leukemia): > 100 µM
TGI (SW-620 colon): > 100 µM
TGI (DU-145 prostate): > 100 µM
TGI (MDA-N): > 100 µM
TGI (SN12C renal): > 100 µM
TGI (HOP-62 NSCLC): > 100 µM
TGI (IGROV1 ovarian): > 100 µM
TGI (LOX IMVI melanoma): > 100 µM
TGI (COLO 205 colon): > 100 µM
TGI (SF-295 CNS): > 100000 nM
TGI (SK-OV-3 ovarian): > 100 µM
TGI (TK-10 renal): > 100 µM
TGI (PC-3 prostate): > 100 µM
TGI (MCF7 breast): > 100 µM
TGI (SF-268 CNS): > 100 µM
TGI (EKVX NSCLC): > 100 µM
TGI (HS 578T breast): > 100 µM
TGI (ACHN renal): > 100 µM
TGI (SNB-19 CNS): > 100 µM
TGI (HT29 colon): > 100 µM
TGI (OVCAR-3 ovarian): > 100000 nM
TGI (MALME-3M melanoma): > 100 µM
TGI (NCI-H226 lung): > 100 µM
